Experiments:
[1] = system: T1, Ab1 fibrils; test: Fibril incubation with plasma, quantitative MS/MS of bound proteins; type: binding, human; conditions: 50:1 w/w plasma protein:fibril
T1 construct: Synthetic amyloid β peptide 1–40 was purchased from Caslo Aps (Lyngby, Denmark); purchased Caslo Aps (Lyngby, Denmark); host or cells: synthetic peptide
Description: (§1) Plasma and CSF solutions were centrifuged (40,000 g, 20 min) to remove any aggregates. The protein concentration was determined using 280 nm absorbance assuming 1 Abs = 1 mg/mL. Samples with fibril material (20 μg), plasma (500 μg) or CSF (40 μg) proteins were prepared in 200 μL PBS buffer with 5 mM EDTA. Control samples (without fibril material) were prepared similarly. All samples were incubated at room temperature for one hour under gentle agitation. Fibrils and fibril-bound proteins were pelleted by centrifugation at 17,000 g for 30 minutes. The supernatant (175 μL) was removed and the aggregate was re-suspended in 175 μL PBS and pelleted again before further preparation for gel analysis and spin-filter assisted digest for quantitative MS/MS.
(§2) The fibril-protein pellets were transferred to spin-filters (0.22 μm), washed twice in PBS (100 μL) and once in 1 M NaCl (100 μL). The fibrils and fibril-bound proteins were dissolved by one-hour incubation in 100 μL 6 M guanidinium chloride followed by elution from the spin-filter. The eluted proteins were loaded onto a 3 kDa MWCO filter unit for filter-assisted unfolding, reduction, alkylation, and trypsin digestion. In brief, samples were washed twice in 8 M urea, once in 8 M urea with 50 mM DTT, once in 8 M urea with 50 mM iodoaceteamide, and twice in 8 M Urea. The filter units were dried by centrifugation (14,000 g in 30 minutes) after every addition. Trypsin digestion was carried out with 0.25 μg sequencing grade trypsin from Sigma Aldrich in 50 mM ammonium bicarbonate overnight at 37 °C. The tryptic peptides were collected by centrifugation, acidified with TFA (0.1%) and micro-purified using POROS R2 column material (Applied Biosystems) packed in P200 pipette tips (Sarstedt).
(§3) LC-MS/MS analyses were performed on an EASY-nLC II system (Thermo Fisher Scientific) connected to a TripleTOF 5600+ mass spectrometer (Sciex) equipped with a NanoSpray III source (Sciex) and operated under Analyst TF 1.6.0 control.
(§4) The micro-purified tryptic peptides were dissolved in 0.1% formic acid, injected and trapped on an in-house packed trap column (2 cm × 100 μm I.D) with RP ReproSil-Pur C18-AQ 3 μm resin (Dr. Maisch GmbH). Peptides were eluted from the trap column and separated on a 15 cm analytical column (75 μm i.d.) packed in-house in a pulled emitter with RP ReproSil-Pur C18-AQ 3 μm resin (Dr. Maisch GmbH). Elution from the analytical column was performed with a linear gradient from 5% to 35% phase B (90% acetonitrile with 0.1% formic acid) over 20 min for protein identification and 50 min for quantitative analysis, respectively.
(§5) All samples were analysed three times, yielding nine MS/MS experiments for each fibril for both plasma and CSF. For the area-based extracted ion chromatogram (XIC) quantification, the acquisition method was set up as an information-dependent acquisition (IDA) experiment collecting up to 25 MS/MS spectra in each 1.6 sec cycle using an exclusion window of 6 sec.
(§6) XIC quantification was based on the average ion intensity of the three most abundant peptides for each protein. Only proteins quantified in at least four out of nine MS/MS experiments per fibril were included in the quantification. The total ion scores were visualized after grouping the proteins according to function (Figure S11).
(§7) For each MS/MS experiment, the ion intensities of the individual proteins were normalized to the total ion intensity of that MS/MS experiment to achieve a relative protein composition. The contribution of each protein was averaged over all nine MS/MS experiments (Tables 1 and 2).

[2] = system: T2, Ab2 fibrils; test: as above; type: binding, human; conditions: 50:1 w/w plasma protein:fibril
T2 construct: Two structurally distinct fibrils of the Aβ(1–40) peptide associated with AD
Description: as §1, with “Samples with fibril material (20 μg), plasma (500 μg) or CSF (40 μg) proteins were prepared in 200 μL PBS buffer with 5 mM EDTA.” left out
as §2, §3, §4, §5, §6, §7

[3] = target: T3, glucagon fibrils (Homo sapiens, UniProt P01275); test: as above; type: binding; conditions: 50:1 w/w plasma protein:fibril
T3 construct: fibrils of the peptide hormone glucagon
Description: as §1, with “Samples with fibril material (20 μg), plasma (500 μg) or CSF (40 μg) proteins were prepared in 200 μL PBS buffer with 5 mM EDTA.” left out
as §2, §3, §4, §5, §6, §7

[4] = target: T4, C-36 fibrils (Homo sapiens, UniProt P01009); test: as above; type: binding; conditions: 50:1 w/w plasma protein:fibril
T4 construct: the 36 residue C-terminal fragment of α1-antitrypsin (C-36)
Description: as §1, with “Samples with fibril material (20 μg), plasma (500 μg) or CSF (40 μg) proteins were prepared in 200 μL PBS buffer with 5 mM EDTA.” left out
as §2, §3, §4, §5, §6, §7

[5] = target: T5, αSN fibrils (Homo sapiens, UniProt P37840); test: as above; type: binding; conditions: 50:1 w/w plasma protein:fibril
Description: as §1, with “Samples with fibril material (20 μg), plasma (500 μg) or CSF (40 μg) proteins were prepared in 200 μL PBS buffer with 5 mM EDTA.” left out
as §2, §3, §4, §5, §6, §7

[6] = system: T6, FAS4-AD aggregates; test: as above; type: binding, human; design: key to Identification status of plasma protein bound: FAS4-AD: *: Identified, but not quantified; —: Not identified in any of the samples
T6 construct: aggregates of a mutated version of the FAS1-4 domain of TGFBIp
Description: as §1, with “Samples with fibril material (20 μg), plasma (500 μg) or CSF (40 μg) proteins were prepared in 200 μL PBS buffer with 5 mM EDTA.” left out
as §2, §3, §4, §5, §6, §7

[7] = system: T1, Ab1 fibrils; test: Fibril incubation with CSF, quantitative MS/MS of bound proteins; type: binding, human; design: key to Identification status of CSF protein bound: Ab1: *: Identified, but not quantified; —: Not identified in any of the samples; conditions: for Relative composition of CSF proteins bound: Ab1: 4:1 w/w CSF protein:fibril
Description: as §1, with “Samples with fibril material (20 μg), plasma (500 μg) or CSF (40 μg) proteins were prepared in 200 μL PBS buffer with 5 mM EDTA.” left out
as §2, §3, §4, §5, §6, §7

[8] = system: T2, Ab2 fibrils; test: as above; type: binding, human; design: key to Identification status of CSF protein bound: Ab2: *: Identified, but not quantified; —: Not identified in any of the samples; conditions: for Relative composition of CSF proteins bound: Ab2: 4:1 w/w CSF protein:fibril
Description: as §1, with “Samples with fibril material (20 μg), plasma (500 μg) or CSF (40 μg) proteins were prepared in 200 μL PBS buffer with 5 mM EDTA.” left out
as §2, §3, §4, §5, §6, §7

[9] = target: T3, glucagon fibrils; test: as above; type: binding; conditions: 4:1 w/w CSF protein:fibril
Description: as §1, with “Samples with fibril material (20 μg), plasma (500 μg) or CSF (40 μg) proteins were prepared in 200 μL PBS buffer with 5 mM EDTA.” left out
as §2, §3, §4, §5, §6, §7

[10] = target: T4, C-36 fibrils; test: as above; type: binding; design: key to Identification status of CSF protein bound: C-36: *: Identified, but not quantified; —: Not identified in any of the samples; conditions: for Relative composition of CSF proteins bound: C-36: 4:1 w/w CSF protein:fibril
Description: as §1, with “Samples with fibril material (20 μg), plasma (500 μg) or CSF (40 μg) proteins were prepared in 200 μL PBS buffer with 5 mM EDTA.” left out
as §2, §3, §4, §5, §6, §7

[11] = target: T5, αSN fibrils; test: as above; type: binding; design: key to Identification status of CSF protein bound: αSN: *: Identified, but not quantified; —: Not identified in any of the samples; conditions: for Identification status of CSF protein bound: αSN: symbol cells; for Relative composition of CSF proteins bound: αSN: 4:1 w/w CSF protein:fibril
Description: as §1, with “Samples with fibril material (20 μg), plasma (500 μg) or CSF (40 μg) proteins were prepared in 200 μL PBS buffer with 5 mM EDTA.” left out
as §2, §3, §4, §5, §6, §7

[12] = system: T6, FAS4-AD aggregates; test: as above; type: binding, human; design: key to Identification status of CSF protein bound: FAS4-AD: *: Identified, but not quantified; —: Not identified in any of the samples; conditions: for Identification status of CSF protein bound: FAS4-AD: symbol cells
Description: as §1, with “Samples with fibril material (20 μg), plasma (500 μg) or CSF (40 μg) proteins were prepared in 200 μL PBS buffer with 5 mM EDTA.” left out
as §2, §3, §4, §5, §6, §7

T4 sequence (P01009 383-418 limits assumed): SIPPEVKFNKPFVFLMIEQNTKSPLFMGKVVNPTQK
T3 sequence (P01275 53-81 limits assumed): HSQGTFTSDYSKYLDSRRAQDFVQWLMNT

Row | Substance | Relative composition of plasma proteins bound: Ab1 [1] | Relative composition of plasma proteins bound: Ab2 [2] | Relative composition of plasma proteins bound: Glucagon [3] | Relative composition of plasma proteins bound: C-36 [4] | Relative composition of plasma proteins bound: αSN [5] | Relative composition of plasma proteins bound: FAS4-AD ([6]; 50:1 w/w plasma protein:fibril) | Relative composition of CSF proteins bound: Ab1 [7] | Relative composition of CSF proteins bound: Ab2 [8] | Relative composition of CSF proteins bound: Glucagon [9] | Relative composition of CSF proteins bound: C-36 [10] | Identification status of CSF protein bound: αSN [11] | Identification status of CSF protein bound: FAS4-AD [12] | Relative composition of CSF proteins bound: αSN [11] | Identification status of CSF protein bound: Ab1 ([7]; symbol cells) | Identification status of CSF protein bound: Ab2 ([8]; symbol cells) | Identification status of CSF protein bound: C-36 ([10]; symbol cells) | Relative composition of CSF proteins bound: FAS4-AD ([12]; 4:1 w/w CSF protein:fibril) | Identification status of plasma protein bound: FAS4-AD ([6]; symbol cells)
1 | Fibrinogen γ chain: plasma protein bound to fibrils | 9.8 ± 0.3 % of total protein | 7.0 ± 0.3 % of total protein | 6.7 ± 0.3 % of total protein | 11.7 ± 2.0 % of total protein | 7.7 ± 1.3 % of total protein | 1.5 ± 0.4 % of total protein |  |  |  |  |  |  |  |  |  |  |  | 
2 | Fibronectin |  |  |  | 0.2 ± 0.0 % of total protein | 1.0 ± 0.0 % of total protein |  | 0.9 ± 0.0 % of total protein | 1.2 ± 0.3 % of total protein | 0.2 ± 0.1 % of total protein | 0.7 ± 0.1 % of total protein | * | — |  |  |  |  |  | 
3 | Gelsolin |  |  |  |  |  |  | 2.9 ± 0.1 % of total protein | 3.5 ± 0.6 % of total protein | 0.8 ± 0.1 % of total protein | 1.9 ± 0.2 % of total protein |  | — | 5.0 ± 0.9 % of total protein |  |  |  |  | 
4 | Ig κ chain C region: CSF protein bound to fibrils |  |  |  |  |  |  |  |  | 0.5 ± 0.0 % of total protein |  | * | * |  | * | * | * |  | 
5 | Transthyretin |  |  |  |  |  |  | 3.0 ± 0.5 % of total protein | 4.0 ± 1.3 % of total protein | 1.1 ± 0.2 % of total protein | 2.4 ± 0.2 % of total protein |  |  | 4.3 ± 1.1 % of total protein |  |  |  | 4.4 ± 0.3 % of total protein | 
6 | Vitamin K-dependent protein S: plasma protein bound to fibrils | 1.1 ± 0.0 % of total protein | 1.3 ± 0.1 % of total protein | 0.8 ± 0.1 % of total protein | 0.6 ± 0.1 % of total protein | 2.5 ± 0.1 % of total protein |  |  |  |  |  |  |  |  |  |  |  |  | *
